Measurements as given in PubChem BioAssay (NCI).
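Where inhibition never reached the appropriate level, the endpoint shown equals the highest concentration tested. Otherwise, values were interpolated linearly from a five-concentration, 48-hour dose response in 96-well plates. GI50 = concentration required for 50% inhibition of growth. Definition used: TGI = concentration required for complete inhibition of growth.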

Legend:
Assay in all cases: NCI-60 cell line screen, 48 h
786-0 renal = system: 786-0 renal
A498 renal = system: A498 renal
A549 NSCLC = system: A549 NSCLC
ACHN renal = system: ACHN renal
BT-549 breast = system: BT-549 breast
CAKI-1 renal = system: CAKI-1 renal
CCRF-CEM leukemia = system: CCRF-CEM leukemia
COLO 205 colon = system: COLO 205 colon
DU-145 prostate = system: DU-145 prostate
EKVX NSCLC = system: EKVX NSCLC
HCC-2998 colon = system: HCC-2998 colon
HCT-116 colon = system: HCT-116 colon
HCT-15 colon = system: HCT-15 colon
HL-60(TB) leukemia = system: HL-60(TB) leukemia
HOP-62 NSCLC = system: HOP-62 NSCLC
HOP-92 NSCLC = system: HOP-92 NSCLC
HS 578T breast = system: HS 578T breast
HT29 colon = system: HT29 colon
IGROV1 ovarian = system: IGROV1 ovarian
KM12 colon = system: KM12 colon
LOX IMVI melanoma = system: LOX IMVI melanoma
M14 melanoma = system: M14 melanoma
MALME-3M melanoma = system: MALME-3M melanoma
MCF7 breast = system: MCF7 breast
MDA-MB-231 breast = system: MDA-MB-231 breast
MDA-MB-435 = system: MDA-MB-435
MOLT-4 leukemia = system: MOLT-4 leukemia
NCI-H226 lung = system: NCI-H226 lung
NCI-H23 lung = system: NCI-H23 lung
NCI-H460 lung = system: NCI-H460 lung
NCI-H522 lung = system: NCI-H522 lung
NCI/ADR-RES ovarian = system: NCI/ADR-RES ovarian
OVCAR-3 ovarian = system: OVCAR-3 ovarian
OVCAR-4 ovarian = system: OVCAR-4 ovarian
OVCAR-5 ovarian = system: OVCAR-5 ovarian
OVCAR-8 ovarian = system: OVCAR-8 ovarian
PC-3 prostate = system: PC-3 prostate
RPMI-8226 leukemia = system: RPMI-8226 leukemia
RXF 393 renal = system: RXF 393 renal
SF-268 CNS = system: SF-268 CNS
SF-295 CNS = system: SF-295 CNS
SF-539 CNS = system: SF-539 CNS
SK-MEL-2 melanoma = system: SK-MEL-2 melanoma
SK-MEL-28 melanoma = system: SK-MEL-28 melanoma
SK-MEL-5 melanoma = system: SK-MEL-5 melanoma
SK-OV-3 ovarian = system: SK-OV-3 ovarian
SN12C renal = system: SN12C renal
SNB-19 CNS = system: SNB-19 CNS
SNB-75 CNS = system: SNB-75 CNS
SW-620 colon = system: SW-620 colon
T-47D breast = system: T-47D breast
TK-10 renal = system: TK-10 renal
UACC-257 melanoma = system: UACC-257 melanoma
UACC-62 melanoma = system: UACC-62 melanoma
UO-31 renal = system: UO-31 renal

Structure (SMILES): COc1cc2c(c(OC)c1OC)-c1ccc(NNC(=S)N(Cc3cccc(C[N+](Cc4cccc(CNC56CC7CC(CC(C7)C5)C6)c4)(Cc4cccc(CNC56CC7CC(CC(C7)C5)C6)c4)Cc4cccc(CN(C(=S)NNc5ccc6c(cc5=O)[C@@H](NC(C)=O)CCc5cc(OC)c(OC)c(OC)c5-6)C56CC7CC(CC(C7)C5)C6)c4)c3)C34CC5CC(CC(C5)C3)C4)c(=O)cc1[C@@H](NC(C)=O)CC2 (stereo not given in full)
- GI50 (786-0 renal): 1300 nM
- TGI (786-0 renal): 5280 nM
- GI50 (A498 renal): 1070 nM
- TGI (A498 renal): 3280 nM
- GI50 (A549 NSCLC): 1610 nM
- TGI (A549 NSCLC): 6000 nM
- GI50 (ACHN renal): 3680 nM
- TGI (ACHN renal): 7990 nM
- GI50 (BT-549 breast): 1550 nM
- TGI (BT-549 breast): 5890 nM
- GI50 (CAKI-1 renal): 3200 nM
- TGI (CAKI-1 renal): 7370 nM
- GI50 (CCRF-CEM leukemia): 904 nM
- TGI (CCRF-CEM leukemia): 2470 nM
- GI50 (COLO 205 colon): 683 nM
- TGI (COLO 205 colon): 1520 nM
- GI50 (DU-145 prostate): 2460 nM
- TGI (DU-145 prostate): 7100 nM
- GI50 (EKVX NSCLC): 2680 nM
- TGI (EKVX NSCLC): 8460 nM
- GI50 (HCC-2998 colon): 635 nM
- TGI (HCC-2998 colon): 1470 nM
- GI50 (HCT-116 colon): 896 nM
- TGI (HCT-116 colon): 3070 nM
- GI50 (HCT-15 colon): 1560 nM
- TGI (HCT-15 colon): 5960 nM
- GI50 (HL-60(TB) leukemia): 168 nM
- TGI (HL-60(TB) leukemia): 1030 nM
- GI50 (HOP-62 NSCLC): 2140 nM
- TGI (HOP-62 NSCLC): 7430 nM
- GI50 (HOP-92 NSCLC): 897 nM
- TGI (HOP-92 NSCLC): 4080 nM
- GI50 (HS 578T breast): 1220 nM
- TGI (HS 578T breast): 6760 nM
- GI50 (HT29 colon): 958 nM
- TGI (HT29 colon): 2810 nM
- GI50 (IGROV1 ovarian): 1450 nM
- TGI (IGROV1 ovarian): 5950 nM
- GI50 (KM12 colon): 1080 nM
- TGI (KM12 colon): 4520 nM
- GI50 (LOX IMVI melanoma): 873 nM
- TGI (LOX IMVI melanoma): 2860 nM
- GI50 (M14 melanoma): 822 nM
- TGI (M14 melanoma): 2260 nM
- GI50 (MALME-3M melanoma): 830 nM
- TGI (MALME-3M melanoma): 3040 nM
- GI50 (MCF7 breast): 862 nM
- TGI (MCF7 breast): 3440 nM
- GI50 (MDA-MB-231 breast): 994 nM
- TGI (MDA-MB-231 breast): 2990 nM
- GI50 (MDA-MB-435): 779 nM
- TGI (MDA-MB-435): 3500 nM
- GI50 (MOLT-4 leukemia): 562 nM
- TGI (MOLT-4 leukemia): 1930 nM
- GI50 (NCI-H226 lung): 1960 nM
- TGI (NCI-H226 lung): 9970 nM
- GI50 (NCI-H23 lung): 1380 nM
- TGI (NCI-H23 lung): 5330 nM
- GI50 (NCI-H460 lung): 1220 nM
- TGI (NCI-H460 lung): 3790 nM
- GI50 (NCI-H522 lung): 699 nM
- TGI (NCI-H522 lung): 1880 nM
- GI50 (NCI/ADR-RES ovarian): 5430 nM
- TGI (NCI/ADR-RES ovarian): 12500 nM
- GI50 (OVCAR-3 ovarian): 1660 nM
- TGI (OVCAR-3 ovarian): 6530 nM
- GI50 (OVCAR-4 ovarian): 2170 nM
- TGI (OVCAR-4 ovarian): 8940 nM
- GI50 (OVCAR-5 ovarian): 1170 nM
- TGI (OVCAR-5 ovarian): 5030 nM
- GI50 (OVCAR-8 ovarian): 2030 nM
- TGI (OVCAR-8 ovarian): 7490 nM
- GI50 (PC-3 prostate): 1450 nM
- TGI (PC-3 prostate): 5640 nM
- GI50 (RPMI-8226 leukemia): 757 nM
- TGI (RPMI-8226 leukemia): 1760 nM
- GI50 (RXF 393 renal): 1700 nM
- TGI (RXF 393 renal): 6650 nM
- GI50 (SF-268 CNS): 1370 nM
- TGI (SF-268 CNS): 6540 nM
- GI50 (SF-295 CNS): 1530 nM
- TGI (SF-295 CNS): 5920 nM
- GI50 (SF-539 CNS): 1140 nM
- TGI (SF-539 CNS): 4300 nM
- GI50 (SK-MEL-2 melanoma): 861 nM
- TGI (SK-MEL-2 melanoma): 2760 nM
- GI50 (SK-MEL-28 melanoma): 1020 nM
- TGI (SK-MEL-28 melanoma): 4070 nM
- GI50 (SK-MEL-5 melanoma): 810 nM
- TGI (SK-MEL-5 melanoma): 2250 nM
- GI50 (SK-OV-3 ovarian): 3000 nM
- TGI (SK-OV-3 ovarian): 7510 nM
- GI50 (SN12C renal): 2230 nM
- TGI (SN12C renal): 6900 nM
- GI50 (SNB-19 CNS): 1650 nM
- TGI (SNB-19 CNS): 6200 nM
- GI50 (SNB-75 CNS): 1400 nM
- TGI (SNB-75 CNS): 6680 nM
- GI50 (SW-620 colon): 814 nM
- TGI (SW-620 colon): 2060 nM
- GI50 (T-47D breast): 1830 nM
- TGI (T-47D breast): 9400 nM
- GI50 (TK-10 renal): 3660 nM
- TGI (TK-10 renal): 8340 nM
- GI50 (UACC-257 melanoma): 4510 nM
- TGI (UACC-257 melanoma): 10300 nM
- GI50 (UACC-62 melanoma): 1610 nM
- TGI (UACC-62 melanoma): 6380 nM
- GI50 (UO-31 renal): 2160 nM
- TGI (UO-31 renal): 7200 nM
